Reference: patent publication US5952354A, “Tris carbamic acid esters: inhibitors of cholesterol absorption” (priority 1993, dated 1999)
pIC50: −log10 of the molar value. Like-named read-outs stand apart in the source and are kept apart here.

How the values were obtained:
[1] = system: absorption of 14C-cholesterol; assay: in vivo cholesterol absorption studies in normal rats ([4-14C] cholesterol); settings: Rattus norvegicus, read-out: Effect on Absorption of 14C-chol. - 6 hr - normal, % Decrease; for inhibition in vivo at 3 mg/kg: 3 mg/kg oral; for inhibition in vivo at 10 mg/kg: 10 mg/kg oral
Procedure: The in vivo cholesterol absorption studies were conducted in normal rats by oral administration of the compound being tested in propylene glycol and olive oil followed by oral administration of [4-^14 C] cholesterol in propylene glycol and olive oil, otherwise following the procedure of Cayen et al., J. Lipid Res. 20 162 (1979). The serum radioactivity was measured at six hours after dosing. The results of this study are reported in the following table as percent decrease compared to control at the dose stated.

[2] = system: acyl-coenzyme A: cholesterol acyltransferase (ACAT); assay: inhibition of acyl-coenzyme A: cholesterol acyltransferase (intracellular cholesterol esterification, procedure of Ross et al.); type: cell-based; settings: for pIC50: read-out: ACAT IC50
Procedure: 1. The ability of the compounds of this invention to inhibit acyl-coenzyme A: cholesterol acyltransferase was established by initially showing that they inhibited intracellular cholesterol esterification by subjecting them to the standard experimental test procedure of Ross et al., J. Biol. Chem. 259, 814 (1984). The results are reported in the following table, where available, in terms of the percent inhibition at 25 μM and the IC50 (μM).

[3] = target: T1, cholesterol esterase (EC 3.1.1.13) (CEH) (Bos taurus, UniProt P30122); assay: inhibition of cholesteryl ester formation by cholesterol esterase (CEH), procedure of Field; type: biochemical, bovine
T1 construct: purchased Sigma Company, St. Louis, Mo., U.S.A. C-1892; host or cells: bovine pancreas
T1 sequence (P30122 19-597): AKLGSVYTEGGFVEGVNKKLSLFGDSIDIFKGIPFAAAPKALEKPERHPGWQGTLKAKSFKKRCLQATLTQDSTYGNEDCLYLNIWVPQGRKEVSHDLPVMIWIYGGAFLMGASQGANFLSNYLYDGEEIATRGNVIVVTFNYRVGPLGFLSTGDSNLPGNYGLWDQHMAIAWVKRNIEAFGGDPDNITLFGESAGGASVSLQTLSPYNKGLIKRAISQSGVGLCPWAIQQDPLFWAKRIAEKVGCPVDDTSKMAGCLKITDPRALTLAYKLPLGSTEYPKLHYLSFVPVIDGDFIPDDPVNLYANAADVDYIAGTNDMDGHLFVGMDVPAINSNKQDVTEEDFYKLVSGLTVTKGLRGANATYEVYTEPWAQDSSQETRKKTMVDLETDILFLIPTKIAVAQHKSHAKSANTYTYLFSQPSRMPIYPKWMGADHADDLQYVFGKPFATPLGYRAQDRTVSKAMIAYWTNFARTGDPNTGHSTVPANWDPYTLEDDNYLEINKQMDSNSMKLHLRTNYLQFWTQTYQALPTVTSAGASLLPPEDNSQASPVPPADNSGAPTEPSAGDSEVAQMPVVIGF
Procedure: 2. The ability of the compounds of this invention to inhibit the formation of cholesteryl esters and thereby interfere with and prevent assimilation of cholesterol into the lymphatic system and ultimately the blood stream was established by incubating the compounds at 37C. with a mixture of cholesterol and oleic acid in the presence of buffered cholesterol esterase [(EC 3.1.1.13) Sigma Company, St. Louis, Mo., U.S.A., No. C-1892, from bovine pancreas] and measuring the amount of ester formed, according to the procedure of Field. J. of Lipid Research, 25, 389 (1984).

[4] = 20 mg/kg oral, normal rats, serum radioactivity at 6 hr, vs control
[5] = 37C, cholesterol and oleic acid, buffered cholesterol esterase from bovine pancreas, read-out: CEH IC50
[6] = normal rats, serum radioactivity at 6 hr, vs control

Compound | inhibition in vivo at 20 mg/kg [1, 4] [%] | ACAT % inhibition at 25 μM [2] [%] | pIC50 [3, 5] | pIC50 [2] | inhibition in vivo at 3 mg/kg [1, 6] [%] | inhibition in vivo at 20 mg/kg ([1]; po, 6 h) [%] | pIC50 [3] | inhibition in vivo at 10 mg/kg [1, 6] [%]
CCCCCCCC/C=C\CCCCCCCCNC(=O)OCCCCCCCCCCCCNC(=O)OC1CCN(C(=O)Oc2ccc(Oc3ccccc3)cc2)CC1 [Example 14, (Z)-4-[12-(Octadec-9-enylcarbamoyloxy)-dodecylcarbamoyloxy]-piperidine-1-carboxylic acid 4-phenoxyphenyl ester] | 2 | 41 | < 4.00 |  |  |  |  | 
CCCCCCN(CCCCCC)C(=O)OCCCCCCNC(=O)OC1CCN(C(=O)Oc2ccc(Oc3ccccc3)cc2)CC1 [Example 7] | 42 | 76 | 6.17 | 5.19 |  |  |  | 
O=C(NCCCCCCOC(=O)N1CCCCC1)OC1CCN(C(=O)Oc2ccc(Oc3ccccc3)cc2)CC1 [Example 8, 4-[6-(Piperidine-1-carbonyloxy)-hexylcarbamoyloxy]-piperidine-1-carboxylic acid 4-phenoxyphenyl ester] |  | 98 | 6.27 | 5.63 | 65 |  |  | 
CCCCCCCN(Cc1ccc(CC(C)(C)C)cc1)C(=O)OCCCCCCNC(=O)OC1CCN(C(=O)Oc2ccc(Oc3ccccc3)cc2)CC1 [Example 11, 4-{6-[(4-(2,2-Dimethyl-propyl)-benzyl)-heptyl-carbamoyloxy]-hexyl-carbamoyloxy}-piperidine-1-carboxylic acid 4-phenoxyphenyl ester] | 6 | 24 | 4.55 |  |  |  |  | 
CCCCCCNC(=O)OCCCCCCCCCCCCNC(=O)OC1CCN(C(=O)Oc2ccc(Oc3ccccc3)cc2)CC1 [Example 10, 4-[12-(Hexylcarbamoyloxy)-dodecylcarbamoyloxy]-piperidine-1-carboxylic acid 4-phenxoyphenyl ester] |  | 83 |  | 5.30 |  | 22 | 6.21 | 
CCCCCCNC(=O)OCCCCCCNC(=O)OC1CCN(C(=O)Oc2ccc(Oc3ccccc3)cc2)CC1 [Example 6, 4-[6-(Hexylcarbamoyloxy)-hexylcarbamoyloxy]-piperidine-1-carboxylic acid 4-phenoxyphenyl ester] |  | 97 | 6.38 | 5.75 | 59 |  |  | 
CCCCCCNC(=O)OCCCNC(=O)OC1CCN(C(=O)Oc2ccc(Oc3ccccc3)cc2)CC1 [Example 16, 4-[3-(Hexylcarbamoyloxy)-propylcarbamoyloxy]-piperidine-1-carboxylic acid 4-phenoxyphenyl ester] |  |  | 6.14 |  |  |  |  | 68
O=C(NCCCCCCOC(=O)N1CCC2(CCCC2)CC1)OC1CCN(C(=O)Oc2ccc(Oc3ccccc3)cc2)CC1 [Example 12, 8-Aza-spiro[4,5]decane-8-carboxylic acid 6-{[1-(4-phenoxy-phenoxycarbonyl)-piperidine-4-oxycarbonyl]amino}-hexyl ester] |  | 83 | 6.51 | 5.76 |  |  |  | 76
O=C(NCCCCCCOC(=O)N(Cc1ccccc1)Cc1ccccc1)OC1CCN(C(=O)Oc2ccc(Oc3ccccc3)cc2)CC1 [Example 9] |  | 95 | 7.10 | 5.80 |  |  |  | 49
CCCCCCCCCNC(=O)OCCCNC(=O)OC1CCN(C(=O)Oc2ccc(Oc3ccccc3)cc2)CC1 [Example 18, 4-[3-(Nonylcarbamoyloxy)-propylcarbamoyloxy]-piperidine-1-carboxylic acid 4-phenoxyphenyl ester] |  |  | 6.29 |  |  |  |  | 50
CCCCCCCC/C=C\CCCCCCCCNC(=O)OCCCCCCNC(=O)OC1CCN(C(=O)Oc2ccc(Oc3ccccc3)cc2)CC1 [Example 13] | 20 | 47 | 4.81 |  |  |  |  | 
